The values below come from PMC3798429, “Exploring the Trypanosoma brucei Hsp83 Potential as a Target for Structure Guided Drug Design” (PLoS Neglected Tropical Diseases, 2013).

The target of assay [1] is T1, TbHsp83 NTD (Trypanosoma brucei brucei, UniProt P12861). It is filed as binding. Particulars: TbHsp83 NTD, inhibitor 25 µM, shifts above 2°C considered significant. The method, then:
(§1) DSF screening was carried out using a LightCycler 480 Real Time PCR System (Roche Applied Science, Quebec, Canada). The NTDs from TbHsp83 as well as human Hsp90s α and β were buffered in 100 mM hepes pH 7.5, 150 mM NaCl and assayed in a 384-well format. The final concentration of the protein sample was optimized between 0.05 and 0.2 mg/ml for each NTD (concentration selected based on pre-testing results to avoid saturation of the fluorescence detector). […] The recorded fluorescence reads were fitted to the Boltzmann sigmoid function using Bioactive software (Harbinger Biotechnology and Engineering Corp., Ontario, Canada). The inflection point of each fitted curve is defined as the melting temperature (T m). […] Thermal shifts above 2°C were considered significant.

Assay [2] deals with TbHsp83 NTD. It is filed as binding. The note with it: DSF comparison of TbHsp83, Hsp90α and Hsp90β. The method, then:
as §1

Assay [3] concerns T2, Human Hsp90α.
T2 construct: The NTDs from TbHsp83 as well as human Hsp90s α and β
As to the kind of experiment: Differential scanning fluorimetry (DSF) thermal shift, human Hsp90α NTD. The note with it: inhibitor 25 µM. In kind it is binding. How it is done: as §1

Assay [4] has as its system T3, Human Hsp90β.
T3 construct: The NTDs from TbHsp83 as well as human Hsp90s α and β
Kind of assay: Differential scanning fluorimetry (DSF) thermal shift, human Hsp90β NTD. In kind it is binding. The note with it: inhibitor 25 µM. How it is done: as §1

In assay [5] the target is T1, TbHsp83 NTD. As to the kind of experiment: biochemical. In kind it is binding.
Assay [6] concerns T. brucei 427. Kind of assay: Parasite growth inhibition assay. It is filed as cell-based. The note with it: Trypanosoma brucei. How it is done: Assay conditions for T. brucei 427 cell based assay were followed as previously reported in the literature.
Several of the compounds characterized using DSF and ITC assays were evaluated for their ability to kill T. brucei in a continuous in vitro culture system.

The target in assay [7] is Human TRAP-1. Particulars: read-out: K d (previous ITC measurements); cited from earlier work.
Assay [8] concerns Trypanosoma brucei. Set-up: method as in PMID 23630365. The note with it: cited from earlier work.
For assay [9], the target named is T3, Human Hsp90β. Particulars: read-out: K d (previous ITC measurements); cited from earlier work.
Assay [10] deals with Yeast Hsp83. The note with it: read-out: K d (previous ITC measurements); cited from earlier work.
For assay [11], the system named is Plasmodium. Set-up: method as in PMID 12584193. Particulars: cited from earlier work.
The mark [12] stands for this setting: ITC, 20°C, TbHsp83 NTD, read-out: K d.
Where [13] appears, read: blood stream stage T. brucei 427, in vitro culture, read-out: EC50.

Several values for one entry are separate records, joined by “and”; a condition that tells them apart may be missing. Equal values may be shown once. Read-outs that look alike come from different tables or passages of the source. Marks after values point to notes of the source that are not given here.

T1 sequence (P12861 1-213): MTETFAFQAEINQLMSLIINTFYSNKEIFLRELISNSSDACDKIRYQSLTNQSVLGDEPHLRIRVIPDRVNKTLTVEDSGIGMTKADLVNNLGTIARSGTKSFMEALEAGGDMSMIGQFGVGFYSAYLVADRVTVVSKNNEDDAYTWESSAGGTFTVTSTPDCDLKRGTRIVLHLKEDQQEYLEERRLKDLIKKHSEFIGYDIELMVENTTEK

As for `CSCCNc1cc(-n2nc(C(F)(F)F)c3c2CC(C)(C)CC3=O)ccc1C(N)=O` [Compound 5, 4-(6,6-dimethyl-4-oxo-3-(trifluoromethyl)-4,5,6,7-tetrahydro-1H-indazol-1-yl)-2-((2-(methylthio)ethyl)amino)benzamide], the ΔT m in assay [1] came out at 12.03 °C; in [3], 2.3 °C; in assay [4], 0.4 °C. For the same compound, the entries for the “binding preference TbHsp83 vs human Hsp90” value in [2] and in [2] (listed as compound 5) were “preferentially binds TbHsp83” and “markedly stronger binding to TbHsp83”, respectively. In addition, the Kd in assay [5] (setting [12]) was 0.794 µM. In addition, the EC50 in [6] (setting [13]) was 0.13 µM.

Regarding `Oc1cc(O)c(-c2noc3ccc(NCCN4CCOCC4)cc23)cc1Cl` [CAY10607], the ΔT m was found to be 13.3 °C in assay [1], 15.3 °C in [3] and 12.1 °C in [4]. For the same compound, the Kd in [5] (setting [12]) stood at 0.01 µM.

`CC1(C)CC(=O)c2c(C(F)(F)F)nn(-c3ccc(C(N)=O)c(N[C@H]4CC[C@H](O)CC4)c3)c2C1` [Compound 4, 4-[6,6-dimethyl-4-oxo-3-(trifluoromethyl)-4,5,6,7-tetrahydro-1H-indazol-1-yl]-2-[(trans-4-hydroxycyclohexyl)amino]benzamide]: the ΔT m in assay [1] came to 15.5 °C. The Kd in [5] (setting [12]) is 0.003 µM; in [5] (ITC, read-out: K d) it was 0.0028 µM. Further, the EC50 in assay [6] (setting [13]) turned out to be 0.1 µM.

Consider `CCNC(=O)c1noc(-c2cc(C(C)C)c(O)cc2O)c1-c1ccc(CN2CCOCC2)cc1` [NVP-AUY922], for which the values for the ΔT m in [1], in assay [3] and in assay [4] were 18.5 °C, 22.3 °C and 19.6 °C, respectively. Besides, the “binding preference TbHsp83 vs human Hsp90” value in [2] is reported as “stronger affinity for human Hsp90”. Further, the Kd in assay [5] (setting [12]) stood at 0.003 µM.

AMPPSP: in assay [7], the Kd is 109 µM.

`CO[C@H]1/C=C\C=C(/C)C(=O)NC2=CC(=O)C(NCCN(C)C)=C(C[C@@H](C)C[C@H](OC)[C@H](O)[C@@H](C)/C=C(\C)[C@@H]1OC(N)=O)C2=O` [Compound 17-DAMG-GA, 17-DAMG-GA]: the ΔT m in [1] was found to be 11.7 °C; in assay [3], 5.5 °C; in assay [4], 3.9 °C. The EC50 in assay [8] was 0.003 µM. Further, the Kd in assay [9] was 0.35 µM.

As for `CO[C@H]1[C@@H](OC)C[C@H](C)[C@@H](OC)C2=CC(=O)C=C(NC(=O)/C(C)=C/C=C\[C@H](C)[C@@H](OC(N)=O)/C(C)=C/[C@@H]1C)C2=O` [Macbecin I], the ΔT m in assay [1] is 16.9 °C; in assay [3], 10.2 °C; in assay [4] it was 8.6 °C. Moreover, in assay [2], the “binding preference TbHsp83 vs human Hsp90” value is “markedly stronger binding to TbHsp83”. The “fold higher affinity of T. brucei Hsp83 compared to K d reported for yeast counterpart” value in assay [5] (ITC K d vs yeast value of ref 45) is on record as 2.5 fold. For the same compound, the Kd was 0.093 µM in assay [5] (K d, ITC, 20°C, TbHsp83 NTD) and 0.24 µM in [10].

In the case of `Nc1ncnc2c1ncn2[C@@H]1O[C@H](COP(=O)(O)OP(=O)(O)O)[C@@H](O)[C@H]1O` [ADP], the values for the ΔT m in [1], in assay [3] and in [4] were 0.1 °C, 0.3^a °C and 0.5^b °C, respectively. Besides, the results for the Kd in assay [9] and in [7] were 15 µM and 35 µM, respectively.

As for `CC(=O)c1ccc(N2C3CCC2CC(NC(=O)c2ccc(C(N)=O)c(NC4CCC(O)CC4)c2)C3)nc1` (stereo not drawn) [Compound 6, N4-[8-(5-acetylpyridin-2-yl)-8-azabicyclo[3.2.1]oct-3-endo-yl]-2-[(trans-4-hydroxycyclohexyl)amino]benzene-1,4-dicarboxamide], the figures for the ΔT m in assay [1], in assay [3] and in assay [4] were 10.4 °C, 8.5 °C and 4.9 °C, respectively. In [6] (setting [13]), the EC50 is 0.22 µM.

As for `Nc1ncnc2c1ncn2[C@@H]1O[C@H](COP(=O)(O)OP(=O)(O)NP(=O)(O)O)[C@@H](O)[C@H]1O` [AMPPNP], the ΔT m in assay [1] was 0.3 °C. Further, the Kd was 141 µM in assay [9] and 111 µM in assay [10].

Turning to `COC1=C2C[C@@H](C)C[C@H](OC)[C@H](O)[C@@H](C)/C=C(\C)[C@H](OC(N)=O)[C@@H](OC)/C=C\C=C(/C)C(=O)NC(=CC1=O)C2=O` [Geldanamycin], the ΔT m in assay [1] was found to be 14.8 °C. Further, the Kd in assay [5] (K d, ITC, 20°C, TbHsp83 NTD) was 1 µM; in assay [10], 2.9 µM. The EC50 in assay [8] is 0.013 µM. For the same compound, in assay [11], the “concentration inhibiting parasite growth” value was “sub-micromolar”.

As for `C[C@@H]1C[C@H]2O[C@@H]2/C=C\C=C\C(=O)Cc2c(Cl)c(O)cc(O)c2C(=O)O1` [Radicicol], the ΔT m in [1] was 6.5 °C; in assay [3] it was 18.8 °C; in [4], 15.6 °C. Further, in [2], the “binding preference TbHsp83 vs human Hsp90” value is given as “stronger affinity for human Hsp90”. The concentration for a half-maximal effect (EC50) in [8] is 0.07 µM. Besides, the values for the Kd in [7] and in [10] were 0.025 µM and 0.016 µM, respectively.

Regarding `COc1c(C)cnc(Cn2cnc3c(Cl)nc(N)nc32)c1C` [Compound 1, 6-chloro-9-(4-methoxy-3,-dimethylpyridin-2-ylmethyl)-9H-purin-2-ylamine], the ΔT m in assay [1] was 10.5 °C; in assay [4] it was 8.7 °C. In [5] (K d, ITC, 20°C, TbHsp83 NTD), this compound showed a Kd of 0.009 µM. Moreover, in assay [6] (setting [13]), the EC50 was 0.31 µM.

As for `CCNC(=O)c1cc2c(-c3cc(OCCN(CC)CC)c(Cl)cc3Cl)nc(N)nc2s1` [Compound 3, 2-amino-4-[2,4-dichloro-5-(2-diethylaminoethoxy)phenyl]thiopheno[2,3-d]pyrimidine-6-carboxylic acid ethylamide], the ΔT m in [1] turned out to be 12.7 °C; in assay [3] it was 14.7 °C; in assay [4] it was 12.9 °C. Further, in [5] (setting [12]), the Kd worked out at 0.026 µM. It took 0.21 µM to reach a half-maximal effect in [6] (EC50).

With `CCC(C)n1c(Cc2cc(OC)ccc2OC)nc2c(N)nc(C)nc21` (stereo not shown) [Compound 2, 9-(sec-butyl)-8-(2,5-dimethoxybenzyl)-2-methyl-9H-purin-6-amine], the ΔT m was 0.8 °C in assay [1], “non-significant” in assay [1] (listed as compound 2), 1.2 °C in assay [3] and −0.5 °C in assay [4]. Also, the K d entry in assay [5] (ITC, 20°C, TbHsp83 NTD) is recorded as “lowest affinity measured by ITC”. For the same compound, the Kd in assay [5] (setting [12]) was 9.3 µM and 9.26 µM. The EC50 in assay [6] (setting [13]) is 13 µM.

With `C=CCNC1=C2C[C@@H](C)C[C@H](OC)[C@H](O)[C@@H](C)/C=C(\C)[C@H](OC(N)=O)[C@@H](OC)/C=C\C=C(/C)C(=O)NC(=CC1=O)C2=O` [Compound 17-AAG-GA, 17-AAG-GA], the ΔT m in assay [1] came out at 10.7 °C; in assay [3], 3.1 °C; in assay [4], 1.6 °C. For the same compound, the EC50 in assay [8] was 0.038 µM.

`CCc1cc(-c2n[nH]c(C)c2-c2ccc3c(c2)OCCO3)c(O)cc1O` [CCT018159]: the figures for the ΔT m in assay [1], in [3] and in assay [4] were 8.01 °C, 12.1 °C and 7.5 °C, respectively. For the same compound, the Kd in assay [5] (setting [12]) amounted to 4.98 µM.

For the compound `CO[C@H]1/C=C\C=C(/C)C(=O)NC2=CC(=O)C(NCCN3CCCC3)=C(C[C@@H](C)C[C@H](OC)[C@H](O)[C@@H](C)/C=C(\C)[C@@H]1OC(N)=O)C2=O` [Compound 17-AEP-GA, 17-AEP-GA], the ΔT m in assay [1] stood at 13.8 °C; in assay [3], 5.1 °C; in assay [4], 4.2 °C. Also, the Kd in [5] (setting [12]) was 0.714 µM.
